Reference: US20200360520A1, “USE OF RIFAMYCIN-QUINOLIZIDONE COUPLING MOLECULE” (priority 2019, published 2020)
In brackets after ≈: the same amount, converted by molar mass. Like-named read-outs stand apart in the source and are kept apart here. Blank lines part the entries; values can stand above or below the compound they belong to.

Assays:
Format in all cases: cell-based
Mycobacterium fortuitum = assay: MIC by micro broth dilution method (resazurin microtiter assay); conditions: Mycolicibacterium fortuitum, MH Culture Medium, read-out: Minimum Inhibitory Concentration (MIC)
[1] = tested on: Mycobacterium intracellulare; assay: as above; conditions: Mycobacterium intracellulare, MH Culture Medium, read-out: Minimum Inhibitory Concentration (MIC)
Mycobacterium abscessus [2] = assay: as above; conditions: Mycobacteroides abscessus, read-out: Minimum Inhibitory Concentration (MIC)
[3] = tested on: Mycobacterium massiliense; assay: as above; conditions: for MIC: Mycobacteroides abscessus, read-out: Minimum Inhibitory Concentration (MIC)
Mycobacterium avium [4] = assay: as above; conditions: read-out: Minimum Inhibitory Concentration (MIC)
Mycobacterium avium [5] = assay: MBC test (plating on agar, CFU count); conditions: Mycobacterium avium, read-out: Minimum Bactericidal Concentration (MBC)
Mycobacterium abscessus [6] = assay: MBC test (plating on agar, CFU count)
Mycodacterium chelonei = assay: MIC by micro broth dilution method (resazurin microtiter assay); conditions: MH Culture Medium; Chelonei (standard strain); read-out: Minimum Inhibitory Concentration (MIC)
Mycobacterium kansasii [7] = assay: MBC test (plating on agar, CFU count); conditions: Mycobacterium kansasii, Mycobacterium kansasii, read-out: Minimum Bactericidal Concentration (MBC)
Mycobacterium kansasii [8] = assay: MIC by micro broth dilution method (resazurin microtiter assay); conditions: Mycobacterium kansasii, Mycobacterium kansasii, read-out: Minimum Inhibitory Concentration (MIC)
[9] = clinically isolated strain Fortuitum (S103)
[10] = clinically isolated strain Fortuitum (S111)
[11] = Intracellulare (standard strain)
[12] = clinically isolated strain Intracellulare (S90)
[13] = clinically isolated strain Intracellulare (S261)
[14] = clinically isolated strain Intracellulare (S269)
[15] = clinically isolated strain Intracellulare (S290)
[16] = clinically isolated strain Intracellulare (S291)
[17] = clinically isolated strain Intracellulare (S298)
[18] = clinically isolated strain Intracellulare (S541)
[19] = clinically isolated strain Intracellulare (S623)
[20] = clinically isolated strain Intracellulare (ZPS)
[21] = clinically isolated strain intracellulare (S442)
[22] = MH Culture Medium, clinically isolated strain Massiliense (D18)
[23] = MH Culture Medium, clinically isolated strain Massiliense (D10)
[24] = MH Culture Medium, Avium (standard strain)
[25] = MH Culture Medium, clinically isolated strain Avium (S31)
[26] = MH Culture Medium, clinically isolated strain Avium (S123)
[27] = MH Culture Medium, clinically isolated strain Avium (S559)
[28] = MH Culture Medium, clinically isolated strain Avium (S568)
[29] = MH Culture Medium, clinically isolated strain Avium (S577)
[30] = MH Culture Medium, clinically isolated strain Avium (S597)
[31] = MH Culture Medium, clinically isolated strain Avium (S602)
[32] = MH Culture Medium, Kansasii (standard strain)
[33] = MH Culture Medium, clinically isolated strain Kansasii (S9)
[34] = MH Culture Medium, clinically isolated strain Kansasii (S199)
[35] = MH Culture Medium, clinically isolated strain Kansasii (S520)
[36] = MH Culture Medium, clinically isolated strain Kansasii (S609)

SMILES: CC[C@H]1OC(=O)[C@H](C)[C@@H](O[C@H]2C[C@@](C)(OC)[C@@H](O)[C@H](C)O2)[C@H](C)[C@@H](O[C@@H]2O[C@H](C)C[C@H](N(C)C)[C@H]2O)[C@](C)(OC)C[C@@H](C)C(=O)[C@H](C)[C@@H](O)[C@]1(C)O [Clarithromycin]
MIC (Mycobacterium fortuitum; Fortuitum (standard strain)): 32 µg/mL (≈ 42.8 µM) | MIC (Mycobacterium fortuitum; [9]): > 64 µg/mL | MIC (Mycobacterium fortuitum; [10]): 2 µg/mL (≈ 2.67 µM) | MIC [1, 11]: 0.0625 µg/mL (≈ 0.0836 µM) | MIC [1, 12]: 1 µg/mL (≈ 1.34 µM) | MIC [1, 13]: 1 µg/mL (≈ 1.34 µM) | MIC [1, 14]: 1 µg/mL (≈ 1.34 µM) | MIC [1, 15]: 1 µg/mL (≈ 1.34 µM) | MIC [1, 16]: 1 µg/mL (≈ 1.34 µM) | MIC [1, 17]: 2 µg/mL (≈ 2.67 µM) | MIC [1, 18]: 64 µg/mL (≈ 85.6 µM) | MIC [1, 19]: 4 µg/mL (≈ 5.35 µM) | MIC [1, 20]: 1 µg/mL (≈ 1.34 µM) | MIC [1, 21]: 2 µg/mL (≈ 2.67 µM) | MIC (Mycobacterium abscessus [2]; 7H9 Broth): 16 µg/mL (≈ 21.4 µM) | MIC (Mycobacterium abscessus [2]; MH Broth): 64 µg/mL (≈ 85.6 µM) | Minimum Inhibitory Concentration (MIC) [3, 22]: 0.0625 µg/mL | MIC [3, 23]: 0.25 µg/mL (≈ 0.334 µM) | MIC [3]: 0.0625 µg/mL (≈ 0.0836 µM) | MIC (Mycobacterium avium [4]; 7H9 Broth, Mycobacterium avium Rough): > 64 µg/mL | MIC (Mycobacterium avium [4]; 7H9 Broth, Mycobacterium avium Smooth): 32 µg/mL (≈ 42.8 µM) | MIC (Mycobacterium avium [4]; MH Broth, Mycobacterium avium Rough): > 64 µg/mL | MIC (Mycobacterium avium [4]; MH Broth, Mycobacterium avium Smooth): > 64 µg/mL | MIC (Mycobacterium avium [4]; [24]): 0.0625 µg/mL (≈ 0.0836 µM) | MIC (Mycobacterium avium [4]; [25]): 0.125 µg/mL (≈ 0.167 µM) | MIC (Mycobacterium avium [4]; [26]): 0.5 µg/mL (≈ 0.668 µM) | MIC (Mycobacterium avium [4]; [27]): 0.25 µg/mL (≈ 0.334 µM) | MIC (Mycobacterium avium [4]; [28]): 4 µg/mL (≈ 5.35 µM) | MIC (Mycobacterium avium [4]; [29]): 0.25 µg/mL (≈ 0.334 µM) | MIC (Mycobacterium avium [4]; [30]): 1 µg/mL (≈ 1.34 µM) | MIC (Mycobacterium avium [4]; [31]): 1 µg/mL (≈ 1.34 µM) | MBC (Mycobacterium avium [5]; 7H9 Culture Medium, Mycobacterium avium Rough): > 64 µg/mL | MBC (Mycobacterium avium [5]; 7H9 Culture Medium, Mycobacterium avium Smooth): > 64 µg/mL | MBC (Mycobacterium avium [5]; MH Culture Medium, Mycobacterium avium Rough): > 64 µg/mL | MBC (Mycobacterium avium [5]; MH Culture Medium, Mycobacterium avium Smooth): > 64 µg/mL | Minimum Bactericidal Concentration (MBC) (Mycobacterium abscessus [6]; MH Culture Medium): >64 µg/mL | MBC (Mycobacterium abscessus [6]; Mycobacteroides abscessus, 7H9 Culture Medium, read-out: Minimum Bactericidal Concentration (MBC)): > 64 µg/mL | MIC (Mycodacterium chelonei): 0.5 µg/mL (≈ 0.668 µM) | MBC (Mycobacterium kansasii [7]; 7H9 Culture Medium): 64 µg/mL (≈ 85.6 µM) | MBC (Mycobacterium kansasii [7]; MH Culture Medium): > 64 µg/mL | MIC (Mycobacterium kansasii [8]; 7H9 Broth): 2 µg/mL (≈ 2.67 µM) | MIC (Mycobacterium kansasii [8]; MH Broth): 2 µg/mL (≈ 2.67 µM) | MIC (Mycobacterium kansasii [8]; [32]): 0.0625 µg/mL (≈ 0.0836 µM) | MIC (Mycobacterium kansasii [8]; [33]): 0.125 µg/mL (≈ 0.167 µM) | MIC (Mycobacterium kansasii [8]; [34]): 0.0625 µg/mL (≈ 0.0836 µM) | MIC (Mycobacterium kansasii [8]; [35]): 0.0625 µg/mL (≈ 0.0836 µM) | MIC (Mycobacterium kansasii [8]; [36]): 0.125 µg/mL (≈ 0.167 µM)

MIC (Mycobacterium fortuitum; Fortuitum (standard strain)): 4 µg/mL (≈ 4.72 µM) | MIC (Mycobacterium fortuitum; [9]): 32 µg/mL (≈ 37.8 µM) | MIC (Mycobacterium fortuitum; [10]): 4 µg/mL (≈ 4.72 µM) | MIC [1, 11]: 0.0625 µg/mL (≈ 0.0738 µM) | MIC [1, 12]: 0.125 µg/mL (≈ 0.148 µM) | MIC [1, 13]: 0.25 µg/mL (≈ 0.295 µM) | MIC [1, 14]: 0.0625 µg/mL (≈ 0.0738 µM) | MIC [1, 15]: 0.0625 µg/mL (≈ 0.0738 µM) | MIC [1, 16]: 0.0625 µg/mL (≈ 0.0738 µM) | MIC [1, 17]: 0.5 µg/mL (≈ 0.59 µM) | MIC [1, 18]: 0.125 µg/mL (≈ 0.148 µM) | MIC [1, 19]: 0.25 µg/mL (≈ 0.295 µM) | MIC [1, 20]: 0.0625 µg/mL (≈ 0.0738 µM) | MIC [1, 21]: 0.0625 µg/mL (≈ 0.0738 µM) | MIC [3, 23]: > 64 µg/mL | MIC ([3]; MH Culture Medium, clinically isolated strain Massiliense (D14)): 64 µg/mL (≈ 75.6 µM) | MIC [3, 22]: 64 µg/mL (≈ 75.6 µM) | MIC (Mycobacterium avium [4]; [24]): 0.0625 µg/mL (≈ 0.0738 µM) | MIC (Mycobacterium avium [4]; [25]): 0.0625 µg/mL (≈ 0.0738 µM) | MIC (Mycobacterium avium [4]; [26]): 0.0625 µg/mL (≈ 0.0738 µM) | MIC (Mycobacterium avium [4]; [27]): 0.0625 µg/mL (≈ 0.0738 µM) | MIC (Mycobacterium avium [4]; [28]): 0.0625 µg/mL (≈ 0.0738 µM) | MIC (Mycobacterium avium [4]; [29]): 0.0625 µg/mL (≈ 0.0738 µM) | MIC (Mycobacterium avium [4]; [30]): 0.0625 µg/mL (≈ 0.0738 µM) | MIC (Mycobacterium avium [4]; [31]): 0.0625 µg/mL (≈ 0.0738 µM) | MIC (Mycodacterium chelonei): 64 µg/mL (≈ 75.6 µM) | MIC (Mycobacterium kansasii [8]; [32]): 0.0625 µg/mL (≈ 0.0738 µM) | MIC (Mycobacterium kansasii [8]; [33]): 0.0625 µg/mL (≈ 0.0738 µM) | MIC (Mycobacterium kansasii [8]; [34]): 0.0625 µg/mL (≈ 0.0738 µM) | MIC (Mycobacterium kansasii [8]; [35]): 0.0625 µg/mL (≈ 0.0738 µM) | MIC (Mycobacterium kansasii [8]; [36]): 0.0625 µg/mL (≈ 0.0738 µM)
SMILES: CO[C@H]1/C=C/O[C@@]2(C)Oc3c(C)c(O)c4c(c3C2=O)C2=NC3(CCN(CC(C)C)CC3)NC2=C(NC(=O)/C(C)=C\C=C\[C@H](C)[C@H](O)[C@@H](C)[C@@H](O)[C@@H](C)[C@H](OC(C)=O)[C@@H]1C)C4=O [Rifabutin, rifabutin]
